Reference: patent US7550469B2, “Heterocyclic amide derivatives and their use as dopamine D3 receptor ligands” (Aventis Pharmaceuticals Inc., priority 2001, dated 2009)
Like-named read-outs stand apart in the source and are kept apart here.

Biological target: T1, cloned human dopamine D3 receptors (Homo sapiens, UniProt P35462)
T1 construct: expressed in transfected cells; membrane homogenate
Experiment: [N-Methyl-3H]Spiroperidol binding to cloned human dopamine D3 receptors (Protocol 1)
Procedure, shortened: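 Membranes from CHO cells stably expressing cloned human D3 receptor were used for [N-methyl-3H]spiroperidol (60-90 Ci/mmol) binding. Assay buffer was 0.05 M Tris HCl pH 7.7 with 120 mM NaCl, 5 mM KCl, 2 mM CaCl2 and 1 mM MgCl2, optionally 0.1% ascorbic acid; total ligand concentration calculated from added CPM.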

[1] = the 14th table, read-out: D3 Ki
[2] = the 21st table, read-out: D3 Ki

T1 sequence (P35462 whole entry): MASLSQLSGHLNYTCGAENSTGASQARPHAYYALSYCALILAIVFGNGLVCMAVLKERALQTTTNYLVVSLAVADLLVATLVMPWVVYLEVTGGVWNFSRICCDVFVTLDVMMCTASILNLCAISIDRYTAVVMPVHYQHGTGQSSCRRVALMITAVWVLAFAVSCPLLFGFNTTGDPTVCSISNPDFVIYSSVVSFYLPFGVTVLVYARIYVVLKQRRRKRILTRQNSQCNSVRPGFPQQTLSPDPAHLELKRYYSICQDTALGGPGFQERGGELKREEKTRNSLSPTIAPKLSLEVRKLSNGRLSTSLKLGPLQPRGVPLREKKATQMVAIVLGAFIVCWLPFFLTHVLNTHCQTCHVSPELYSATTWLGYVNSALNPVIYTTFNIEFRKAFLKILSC

| SMILES | Ki [2] [nM] | other results |
| --- | --- | --- |
| O=C(NCCCCCN1CCN(c2csc3cc(F)ccc23)CC1)c1cc2ccccc2[nH]1 [compound 826784] | – | Ki [1]: 3.28 nM |
| COc1ccc2[nH]c(C(=O)NCCCCCN3CCN(c4csc5cc(F)ccc45)CC3)cc2c1 [compound 826785] | – | Ki [1]: 1.43 nM |
| Cn1c(C(=O)NCCCCCN2CCN(c3csc4cc(F)ccc34)CC2)cc2ccccc21 [compound 826786] | – | Ki [1]: 1.09 nM |
| O=C(NCCCCCN1CCN(c2csc3cc(F)ccc23)CC1)c1c[nH]c2ccccc12 [compound 826787] | – | Ki [1]: 1.19 nM |
| O=C(NCCCCCN1CCN(c2csc3cc(F)ccc23)CC1)c1ccc2cc[nH]c2c1 [compound 826790] | – | Ki [1]: 5.66 nM |
| O=C(NCCCCCN1CCN(c2csc3cc(F)ccc23)CC1)c1n[nH]c2ccccc12 [compound 826791] | – | Ki [1]: 11.9 nM |
| CC1=C(C(=O)NCCCCCN2CCN(c3csc4cc(F)ccc34)CC2)Cc2ccccc21 [compound 826792] | – | Ki [1]: 3.91 nM |
| O=C(NCCCCCN1CCN(c2csc3cc(F)ccc23)CC1)c1cc2ccccc2o1 [compound 826793] | – | Ki [1]: 3.7 nM |
| O=C(NCCCCCN1CCN(c2csc3cc(C(F)(F)F)ccc23)CC1)c1cc2ccccc2[nH]1 [compound 826794] | – | Ki (read-out: D3K1): 11.1 nM; Ki [1]: 11.1 nM |
| COc1ccc2[nH]c(C(=O)NCCCCCN3CCN(c4csc5cc(C(F)(F)F)ccc45)CC3)cc2c1 [compound 826795] | – | Ki (read-out: D3K1): 13.9 nM; Ki [1]: 13.9 nM |
| Cn1c(C(=O)NCCCCCN2CCN(c3csc4cc(C(F)(F)F)ccc34)CC2)cc2ccccc21 [compound 826796] | – | Ki (read-out: D3K1): 14.9 nM; Ki [1]: 14.9 nM |
| O=C(NCCCCCN1CCN(c2csc3cc(C(F)(F)F)ccc23)CC1)c1c[nH]c2ccccc12 [compound 826797] | – | Ki (read-out: D3K1): 36.4 nM; Ki [1]: 36.4 nM |
| O=C(NCCCCCN1CCN(c2csc3cc(C(F)(F)F)ccc23)CC1)c1cccc2[nH]ccc12 [compound 826798] | – | Ki (read-out: D3K1): 6.44 nM; Ki [1]: 6.44 nM |
| O=C(NCCCCCN1CCN(c2csc3cc(C(F)(F)F)ccc23)CC1)c1ccc2[nH]ccc2c1 [compound 826799] | – | Ki (read-out: D3K1): 6.48 nM; Ki [1]: 6.48 nM |
| O=C(NCCCCCN1CCN(c2csc3cc(C(F)(F)F)ccc23)CC1)c1ccc2cc[nH]c2c1 [compound 826800] | – | Ki (read-out: D3K1): 27.2 nM; Ki [1]: 27.2 nM |
| O=C(NCCCCCN1CCN(c2csc3cc(C(F)(F)F)ccc23)CC1)c1n[nH]c2ccccc12 [compound 826801] | – | Ki (read-out: D3K1): 49.8 nM; Ki [1]: 49.8 nM |
| CC1=C(C(=O)NCCCCCN2CCN(c3csc4cc(C(F)(F)F)ccc34)CC2)Cc2ccccc21 [compound 826802] | – | Ki (Table 2, read-out: D3K1): 16.9 nM; Ki [1]: 16.9 nM |
| O=C(NCCCCCN1CCN(c2csc3cc(C(F)(F)F)ccc23)CC1)c1cc2ccccc2o1 [compound 826803] | – | Ki (Table 2, read-out: D3K1): 16.9 nM; Ki [1]: 16.9 nM |
| C[C@@H]1CN(c2csc3cc(C(F)(F)F)ccc23)C[C@H](C)N1CCCCNC(=O)c1ccc(F)cc1 [compound 826929] | 217 | – |
| COc1ccc(C(=O)NCCCCN2[C@H](C)CN(c3csc4cc(C(F)(F)F)ccc34)C[C@@H]2C)cc1OC [compound 826930] | 74.7 | – |
| Cc1ccccc1C(=O)NCCCCN1[C@H](C)CN(c2csc3cc(C(F)(F)F)ccc23)C[C@@H]1C [compound 826931] | 219 | – |
| COc1cccc(C(=O)NCCCCN2[C@H](C)CN(c3csc4cc(C(F)(F)F)ccc34)C[C@@H]2C)c1 [compound 826932] | 384 | – |

| SMILES | Ki [2] [nM] | other results |
| --- | --- | --- |
| C[C@@H]1CN(c2csc3cc(C(F)(F)F)ccc23)C[C@H](C)N1CCCCNC(=O)c1ccc(-c2ccccc2)cc1 [compound 826933] | 276 | – |
| C[C@@H]1CN(c2csc3cc(C(F)(F)F)ccc23)C[C@H](C)N1CCCCNC(=O)c1ccc(C(C)(C)C)cc1 [compound 826934] | 227 | – |
| C[C@@H]1CN(c2csc3cc(C(F)(F)F)ccc23)C[C@H](C)N1CCCCNC(=O)c1cnc2ccccc2n1 [compound 826935] | 268 | – |
| C[C@@H]1CN(c2csc3cc(C(F)(F)F)ccc23)C[C@H](C)N1CCCCNC(=O)c1ccc(C(F)(F)F)cc1 [compound 826936] | 96.1 | – |
| C[C@@H]1CN(c2csc3cc(C(F)(F)F)ccc23)C[C@H](C)N1CCCCNC(=O)c1ccncc1 [compound 826937] | 253 | – |
| C[C@@H]1CN(c2csc3cc(C(F)(F)F)ccc23)C[C@H](C)N1CCCCNC(=O)c1cccnc1Cl [compound 826938] | 175 | – |
| C[C@@H]1CN(c2csc3cc(F)ccc23)C[C@H](C)N1CCCCNC(=O)c1ccc(F)cc1 [compound 826939] | 19 | – |
| COc1ccc(C(=O)NCCCCN2[C@H](C)CN(c3csc4cc(F)ccc34)C[C@@H]2C)cc1OC [compound 826940] | 49.2 | – |
| Cc1ccccc1C(=O)NCCCCN1[C@H](C)CN(c2csc3cc(F)ccc23)C[C@@H]1C [compound 826941] | 36.3 | – |
| COc1cccc(C(=O)NCCCCN2[C@H](C)CN(c3csc4cc(F)ccc34)C[C@@H]2C)c1 [compound 826942] | 57.4 | – |
| C[C@@H]1CN(c2csc3cc(F)ccc23)C[C@H](C)N1CCCCNC(=O)c1ccc(-c2ccccc2)cc1 [compound 826943] | 12.7 | – |
| C[C@@H]1CN(c2csc3cc(F)ccc23)C[C@H](C)N1CCCCNC(=O)c1ccc(C(C)(C)C)cc1 [compound 826944] | 128 | – |
| C[C@@H]1CN(c2csc3cc(F)ccc23)C[C@H](C)N1CCCCNC(=O)c1cnc2ccccc2n1 [compound 826945] | 133 | – |
| C[C@@H]1CN(c2csc3cc(F)ccc23)C[C@H](C)N1CCCCNC(=O)c1ccc(C(F)(F)F)cc1 [compound 826946] | 35.9 | – |
| C[C@@H]1CN(c2csc3cc(F)ccc23)C[C@H](C)N1CCCCNC(=O)c1ccncc1 [compound 826947] | 47.6 | – |
| C[C@@H]1CN(c2csc3cc(F)ccc23)C[C@H](C)N1CCCCNC(=O)c1cccnc1Cl [compound 826948] | 154 | – |
| C[C@@H]1CN(c2csc3cc(C(F)(F)F)ccc23)C[C@H](C)N1CCCCNC(=O)c1cc2ccccc2n1C [compound 826950] | 81.2 | – |
| COc1ccc2[nH]c(C(=O)NCCCCN3[C@H](C)CN(c4csc5cc(C(F)(F)F)ccc45)C[C@@H]3C)cc2c1 [compound 826951] | 41.3 | – |
| C[C@@H]1CN(c2csc3cc(C(F)(F)F)ccc23)C[C@H](C)N1CCCCNC(=O)c1c[nH]c2ccccc12 [compound 826952] | 164 | – |
| C[C@@H]1CN(c2csc3cc(C(F)(F)F)ccc23)C[C@H](C)N1CCCCNC(=O)c1cccc2[nH]ccc12 [compound 826953] | 222 | – |
| C[C@@H]1CN(c2csc3cc(C(F)(F)F)ccc23)C[C@H](C)N1CCCCNC(=O)c1ccc2[nH]ccc2c1 [compound 826954] | 39.4 | – |
| C[C@@H]1CN(c2csc3cc(C(F)(F)F)ccc23)C[C@H](C)N1CCCCNC(=O)c1ccc2cc[nH]c2c1 [compound 826955] | 70.5 | – |

| SMILES | Ki [2] [nM] | other results |
| --- | --- | --- |
| C[C@@H]1CN(c2csc3cc(C(F)(F)F)ccc23)C[C@H](C)N1CCCCNC(=O)c1n[nH]c2ccccc12 [compound 826956] | 190 | – |
| C[C@@H]1CN(c2csc3cc(C(F)(F)F)ccc23)C[C@H](C)N1CCCCNC(=O)c1cc2ccccc2o1 [compound 826958] | 148 | – |
| COc1ccc2[nH]c(C(=O)NCCCCN3[C@H](C)CN(c4csc5cc(F)ccc45)C[C@@H]3C)cc2c1 [compound 826960] | 15.3 | – |
| C[C@@H]1CN(c2csc3cc(F)ccc23)C[C@H](C)N1CCCCNC(=O)c1cc2ccccc2n1C [compound 826961] | 51.2 | – |
| C[C@@H]1CN(c2csc3cc(F)ccc23)C[C@H](C)N1CCCCNC(=O)c1c[nH]c2ccccc12 [compound 826962] | 79.8 | – |
| C[C@@H]1CN(c2csc3cc(F)ccc23)C[C@H](C)N1CCCCNC(=O)c1cccc2[nH]ccc12 [compound 826963] | 72.9 | – |
| C[C@@H]1CN(c2csc3cc(F)ccc23)C[C@H](C)N1CCCCNC(=O)c1ccc2[nH]ccc2c1 [compound 826964] | 32.2 | – |
| C[C@@H]1CN(c2csc3cc(F)ccc23)C[C@H](C)N1CCCCNC(=O)c1ccc2cc[nH]c2c1 [compound 826965] | 25.6 | – |
| C[C@@H]1CN(c2csc3cc(F)ccc23)C[C@H](C)N1CCCCNC(=O)c1n[nH]c2ccccc12 [compound 826966] | 77.1 | – |
| C[C@@H]1CN(c2csc3cc(F)ccc23)C[C@H](C)N1CCCCNC(=O)c1cc2ccccc2o1 [compound 827036] | 51.2 | – |
| C[C@@H]1CN(c2csc3cc(C(F)(F)F)ccc23)C[C@H](C)N1CCCCNC(=O)c1cccs1 [compound 827037] | 106 | – |
| C[C@@H]1CN(c2csc3cc(C(F)(F)F)ccc23)C[C@H](C)N1CCCCNC(=O)c1cccc(Cl)c1 [compound 827038] | 155 | – |
| COc1cc(OC)cc(C(=O)NCCCCN2[C@H](C)CN(c3csc4cc(C(F)(F)F)ccc34)C[C@@H]2C)c1 [compound 827039] | 378 | – |
| C[C@@H]1CN(c2csc3cc(C(F)(F)F)ccc23)C[C@H](C)N1CCCCNC(=O)c1ccc(OC(F)(F)F)cc1 [compound 827040] | 165 | – |
| C[C@@H]1CN(c2csc3cc(C(F)(F)F)ccc23)C[C@H](C)N1CCCCNC(=O)c1cccc2ccccc12 [compound 827041] | 357 | – |
| C[C@@H]1CN(c2csc3cc(C(F)(F)F)ccc23)C[C@H](C)N1CCCCNC(=O)c1ccc2ccccc2c1 [compound 827042] | 112 | – |
| C[C@@H]1CN(c2csc3cc(C(F)(F)F)ccc23)C[C@H](C)N1CCCCNC(=O)c1cccc(C(F)(F)F)c1 [compound 827043] | 322 | – |
| C[C@@H]1CN(c2csc3cc(C(F)(F)F)ccc23)C[C@H](C)N1CCCCNC(=O)c1cccc(F)c1 [compound 827044] | 186 | – |
| C[C@@H]1CN(c2csc3cc(C(F)(F)F)ccc23)C[C@H](C)N1CCCCNC(=O)c1cc2ccccc2s1 [compound 827045] | 97.8 | – |
| C[C@@H]1CN(c2csc3cc(C(F)(F)F)ccc23)C[C@H](C)N1CCCCNC(=O)c1cccs1 [compound 827046] | 56.9 | – |
| C[C@@H]1CN(c2csc3cc(F)ccc23)C[C@H](C)N1CCCCNC(=O)c1cccc(Cl)c1 [compound 827047] | 65.1 | – |
